Where two headings read alike, the source gives them in different places.

We go through 13 molecules from patent US10906889B2, “Polycyclic inhibitors of cyclin-dependent kinase 7 (CDK7)” (Dana-Farber Cancer Institute, Inc., priority 2013, dated 2021).

One assay has as its system Jurkat cells. The assay is described as follows: Cell proliferation (CellTiter-Glo, 72 hour), Jurkat. It counts as cell-based. The following applies: Homo sapiens, blood cancer cell line. Background: In ATP-based viability assays light output follows the ATP content of the culture.
For a further assay, the target named is T1, CDK7 (Homo sapiens, UniProt P50613).
T1 construct: purchased Life Technologies (assay service)
The assay is described as follows: Adapta kinase assay (Life Technologies), CDK7. Type of assay: biochemical.

The subject of a further assay is SKBR3. The assay is described as follows: Cell proliferation (CellTiter-Glo, 72 hour), SKBR3. Type of assay: cell-based. The following applies: Homo sapiens, SK-BR-3, breast cancer cell line, read-out: SKBR3 inhibition of proliferation (IC50).
The test system of the next assay is HL60. The assay is described as follows: Cell proliferation (CellTiter-Glo, 72 hour), HL60. It counts as cell-based. The following applies: Homo sapiens, HL-60, blood cancer cell line, read-out: HL60 inhibition of proliferation (IC50).
The next assay concerns MDA-MB231. The assay is described as follows: Cell proliferation (CellTiter-Glo, 72 hour), MDA-MB231. Type of assay: cell-based. The conditions noted are these: Homo sapiens, MDA-MB-231, breast cancer cell line, read-out: MDA-MB231 inhibition of proliferation (IC50).
In another assay the test system is hTERT-HME1. The assay is described as follows: Cell proliferation (CellTiter-Glo, 72 hour), hTERT-HME1. Type of assay: cell-based. The conditions noted are these: breast cancer cell lines table, read-out: hTERT-HME1 inhibition of proliferation (IC50).
A further assay relates to MCF7. The assay is described as follows: Cell proliferation (CellTiter-Glo, 72 hour), MCF7. The conditions noted are these: Homo sapiens, breast cancer cell line, read-out: MCF7 inhibition of proliferation (IC50). Type of assay: cell-based.
The next assay concerns MV4-11. The assay is described as follows: Cell proliferation (CellTiter-Glo, 72 hour), MV4-11. It counts as cell-based. The conditions noted are these: Homo sapiens, blood cancer cell line, read-out: MV4-11 inhibition of proliferation (IC50).
For the next assay, the system named is A673. The assay is described as follows: Cell proliferation (CellTiter-Glo, 72 hour), A673. It counts as cell-based. The conditions noted are these: Homo sapiens, Ewing's sarcoma cell line, read-out: A673 inhibition of proliferation (IC50).
A further assay deals with SAOS. The assay is described as follows: Cell proliferation (CellTiter-Glo, 72 hour), SAOS. Type of assay: cell-based. The following applies: osteosarcoma cell line, read-out: SAOS inhibition of proliferation (IC50).
The test system of a further assay is MNNG-HOS Cl #5. The assay is described as follows: Cell proliferation (CellTiter-Glo, 72 hour), MNNG-HOS Cl #5. The following applies: osteosarcoma cell line, read-out: MNNG-HOS Cl#5 inhibition of proliferation (IC50). Type of assay: cell-based.
Another assay relates to RD-ES. The assay is described as follows: Cell proliferation (CellTiter-Glo, 72 hour), RD-ES. Type of assay: cell-based. The conditions noted are these: Ewing's sarcoma cell line, read-out: RD-ES inhibition of proliferation (IC50).
In the next assay the test system is MCF10A. The assay is described as follows: Cell proliferation (CellTiter-Glo, 72 hour), MCF10A. Type of assay: cell-based. The conditions noted are these: Homo sapiens, MCF-10A, breast cancer cell lines table, read-out: MCF10A inhibition of proliferation (IC50).
The next assay deals with SK-ES-1. The assay is described as follows: Cell proliferation (CellTiter-Glo, 72 hour), SK-ES-1. Type of assay: cell-based. The following applies: Homo sapiens, SK-ES1, Ewing's sarcoma cell line, read-out: SK-ES-1 inhibition of proliferation (IC50).
For the next assay, the system named is T47D. The assay is described as follows: Cell proliferation (CellTiter-Glo, 72 hour), T47D. Type of assay: cell-based. The following applies: Homo sapiens, breast cancer cell line, read-out: T47D inhibition of proliferation (IC50).
Another assay relates to RS4-11. The assay is described as follows: Cell proliferation (CellTiter-Glo, 72 hour), RS4-11. It counts as cell-based. The following applies: Homo sapiens, blood cancer cell line, read-out: RS4-11 inhibition of proliferation (IC50).
In the next assay the test system is THP-1. The assay is described as follows: Cell proliferation (CellTiter-Glo, 72 hour), THP-1. It counts as cell-based. The following applies: Homo sapiens, blood cancer cell line, read-out: THP-1 inhibition of proliferation (IC50).
A further assay deals with 143B. The assay is described as follows: Cell proliferation (CellTiter-Glo, 72 hour), 143B. It counts as cell-based. The following applies: Homo sapiens, osteosarcoma cell line, read-out: 143B inhibition of proliferation (IC50).
The next assay concerns Hs822T. The assay is described as follows: Cell proliferation (CellTiter-Glo, 72 hour), Hs822T. It counts as cell-based. The conditions noted are these: Ewing's sarcoma cell line, read-out: Hs822T inhibition of proliferation (IC50).
The test system of another assay is Hs863T. The assay is described as follows: Cell proliferation (CellTiter-Glo, 72 hour), Hs863T. Type of assay: cell-based. The following applies: Ewing's sarcoma cell line, read-out: Hs863T inhibition of proliferation (IC50).
The target of another assay is T2, MLK3 (Homo sapiens, UniProt Q16584).
T2 construct: purchased Life Technologies (assay service)
The assay is described as follows: LanthaScreen Eu kinase assay (Life Technologies), MLK3. Type of assay: binding. The following applies: Table 2; read-out: MLK3 (calculated IC50).

The next assay addresses CDK5/p25 (Homo sapiens, UniProt Q00535). The assay is described as follows: Z'-Lyte kinase assay (Life Technologies), CDK5/p25.
The mark [1] stands for this setting: Table 1C, co-factors cyclin H and MNAT1, read-out: CDK7 IC50.
Where [2] appears, read: Table 2, co-factors cyclin H and MNAT1, read-out: CDK7 (calculated IC50).

T1 sequence (P50613 whole entry): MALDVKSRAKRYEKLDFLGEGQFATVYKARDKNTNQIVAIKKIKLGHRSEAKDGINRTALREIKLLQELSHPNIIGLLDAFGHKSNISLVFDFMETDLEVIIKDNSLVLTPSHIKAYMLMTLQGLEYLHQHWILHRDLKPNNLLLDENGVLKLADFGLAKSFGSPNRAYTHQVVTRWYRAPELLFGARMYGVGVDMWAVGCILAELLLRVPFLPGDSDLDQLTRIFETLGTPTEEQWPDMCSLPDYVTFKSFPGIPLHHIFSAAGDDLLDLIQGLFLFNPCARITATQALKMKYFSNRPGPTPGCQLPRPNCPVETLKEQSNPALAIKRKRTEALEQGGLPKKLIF
T1 sequence (P51946 whole entry partner): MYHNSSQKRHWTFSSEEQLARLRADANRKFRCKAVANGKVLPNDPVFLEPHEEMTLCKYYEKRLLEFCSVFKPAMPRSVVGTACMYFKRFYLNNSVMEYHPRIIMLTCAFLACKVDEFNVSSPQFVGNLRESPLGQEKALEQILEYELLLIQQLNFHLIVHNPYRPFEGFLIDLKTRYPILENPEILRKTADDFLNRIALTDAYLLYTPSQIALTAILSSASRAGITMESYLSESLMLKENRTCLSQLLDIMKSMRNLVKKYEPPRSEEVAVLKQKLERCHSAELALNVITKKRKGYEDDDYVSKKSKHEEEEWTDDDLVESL
T1 sequence (P51948 whole entry partner): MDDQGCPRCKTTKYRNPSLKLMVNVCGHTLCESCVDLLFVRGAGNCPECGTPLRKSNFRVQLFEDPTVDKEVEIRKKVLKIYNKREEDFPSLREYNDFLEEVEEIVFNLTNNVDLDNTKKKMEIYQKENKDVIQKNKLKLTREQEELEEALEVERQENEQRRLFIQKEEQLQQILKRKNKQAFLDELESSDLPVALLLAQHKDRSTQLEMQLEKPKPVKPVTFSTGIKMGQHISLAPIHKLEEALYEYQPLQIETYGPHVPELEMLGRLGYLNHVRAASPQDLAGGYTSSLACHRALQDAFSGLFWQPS
Chain of CDK5/p25 (Q00535 whole entry): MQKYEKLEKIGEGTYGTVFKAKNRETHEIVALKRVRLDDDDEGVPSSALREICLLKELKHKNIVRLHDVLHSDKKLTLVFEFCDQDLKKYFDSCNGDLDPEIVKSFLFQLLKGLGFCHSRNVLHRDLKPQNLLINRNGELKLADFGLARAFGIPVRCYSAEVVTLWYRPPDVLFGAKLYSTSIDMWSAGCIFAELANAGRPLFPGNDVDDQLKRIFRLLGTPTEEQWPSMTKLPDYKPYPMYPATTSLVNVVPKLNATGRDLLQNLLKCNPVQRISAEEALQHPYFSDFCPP
Chain of CDK5/p25 (Q15078 99-307 partner limits assumed): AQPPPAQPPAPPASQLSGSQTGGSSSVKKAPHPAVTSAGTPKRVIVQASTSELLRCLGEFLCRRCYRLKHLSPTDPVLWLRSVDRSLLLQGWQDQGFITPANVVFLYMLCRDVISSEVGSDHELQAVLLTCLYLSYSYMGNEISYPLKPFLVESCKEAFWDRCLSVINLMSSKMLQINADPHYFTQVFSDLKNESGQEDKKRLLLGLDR
T2 sequence (Q16584 whole entry): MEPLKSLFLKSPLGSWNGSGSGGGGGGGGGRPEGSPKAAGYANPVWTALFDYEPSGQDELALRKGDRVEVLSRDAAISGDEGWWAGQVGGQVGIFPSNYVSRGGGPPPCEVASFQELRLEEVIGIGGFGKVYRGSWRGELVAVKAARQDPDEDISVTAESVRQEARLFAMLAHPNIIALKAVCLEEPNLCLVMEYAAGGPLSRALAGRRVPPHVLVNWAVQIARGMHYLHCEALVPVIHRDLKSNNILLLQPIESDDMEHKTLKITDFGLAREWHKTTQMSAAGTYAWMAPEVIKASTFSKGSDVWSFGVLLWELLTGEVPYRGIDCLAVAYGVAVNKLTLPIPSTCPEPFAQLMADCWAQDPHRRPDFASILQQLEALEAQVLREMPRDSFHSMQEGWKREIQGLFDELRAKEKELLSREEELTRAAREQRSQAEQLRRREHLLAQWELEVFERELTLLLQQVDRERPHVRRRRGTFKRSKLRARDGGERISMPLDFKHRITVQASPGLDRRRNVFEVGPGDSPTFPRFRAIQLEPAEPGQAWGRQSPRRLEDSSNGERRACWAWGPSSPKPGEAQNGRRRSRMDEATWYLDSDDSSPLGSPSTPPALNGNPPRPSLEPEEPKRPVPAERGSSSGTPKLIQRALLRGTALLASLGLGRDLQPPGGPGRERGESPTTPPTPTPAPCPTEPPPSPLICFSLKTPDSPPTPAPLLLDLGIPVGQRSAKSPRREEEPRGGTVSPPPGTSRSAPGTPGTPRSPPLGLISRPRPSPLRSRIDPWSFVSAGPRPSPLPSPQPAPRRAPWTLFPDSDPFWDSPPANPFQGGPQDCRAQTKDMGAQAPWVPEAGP
Description for CDK5/p25: Compounds of the invention were assayed for activity against a variety of different kinases at Life Technologies™ (Grand Island, N.Y.) using their commercially available Adapta® (for CDK7, CDK9/cyclin T1, and IRAK1 kinases), Z′-Lyte® (for CDK1, CDK2, CDK5/p25, CDK5/p35, JNK1 and JNK2 kinases), and LanthaScreen Eu® (for CDK8, CDK9/cyclin K and MLK3) kinase assay services. Test compounds were tested at 100 nM and 1 μM final concentrations in 1% DMSO against all kinases except CDK7. For CDK7, test compounds were tested at concentrations ranging from 10 μM to 0.514 nM in a series of 3-fold serial dilutions. […] The co-factors used for each kinase in the assays were as follows: CDK1: cyclin B; CDK2: cyclin A; CDK5: p25 or p35 as indicated; CDK7: cyclin H and MNAT1; CDK8: cyclin C; CDK9: cyclin K or cyclin T1 as indicated; IRAK1: Histone H3 (1-20) peptide; JNK1: none required; JNK2: none required; MLK3: none required.

On to `C=CC(=O)Nc1ccc(C(=O)NC2CCCC(Nc3ncc(Cl)c(-c4sc(C)nc4C)n3)C2)cc1` (stereo not shown) [Compound 142], for which the IC50 was < 500 nM in the assay with Jurkat cells and 100 to 1000 nM at CDK7 (setting [1]).
The corresponding values for `Cc1noc(C)c1-c1nc(N[C@@H]2CCC[C@H](NC(=O)c3ccc(NC(=O)/C=C/CN(C)C)cc3)C2)ncc1Cl` [Compound 144] are < 500 nM and 100 to 1000 nM.
For the molecule `C=CC(=O)Nc1ccc(C(=O)N[C@H]2CCC[C@@H](Nc3ncc(Cl)c(-c4c(C)noc4C)n3)C2)cc1` [Compound 145], the IC50 with Jurkat cells is < 500 nM; on CDK7 (setting [1]) it was < 1000 nM.
Regarding `C=CC(=O)Nc1ccc(C(=O)N[C@H]2CCC[C@@H](Nc3ncc(C4CC4)c(-c4c[nH]c5ccccc45)n3)C2)cc1` [Compound 146], the values for the IC50 in the assay with Jurkat cells and on CDK7 (setting [1]) were 500 to 5000 nM and 100 to 1000 nM, respectively.
In the case of `C=CC(=O)Nc1ccc(C(=O)N[C@H]2CC[C@@H](Nc3ncc(Cl)c(-c4c[nH]c5ccccc45)n3)CC2)cc1` [Compound 147], the IC50 with Jurkat cells is < 500 nM; on CDK7 (setting [1]), < 1000 nM.
The corresponding values for `C=CC(=O)Nc1ccc(C(=O)N[C@H]2CCC[C@@H](Nc3ncc(Cl)c(-c4cn(C)c5ccccc45)n3)C2)cc1` [Compound 152] are < 500 nM and 100 to 1000 nM.
With `CN1CC[C@H](c2c(O)cc(O)c3c(=O)cc(-c4ccccc4Cl)oc23)[C@H](O)C1` [Flavopiridol, flavopiridol, reference compound], the IC50 was < 500 nM in the assay on SKBR3; < 500 nM in the assay on HL60; < 500 nM in the assay with MDA-MB231; < 500 nM in the assay with hTERT-HME1; 500 to 5000 nM in the assay with MCF7; < 500 nM with MV4-11. Further, the IC50 in the assay on A673 was < 500 nM; in the assay with SAOS it was < 500 nM; in the assay on MNNG-HOS Cl #5 it was 500 to 5000 nM; with RD-ES, < 500 nM; in the assay on MCF10A, < 500 nM; in the assay with SK-ES-1 it was < 500 nM. The IC50 in the assay on T47D is > 5000 nM; with RS4-11 it was < 500 nM; with THP-1 it was < 500 nM; in the assay on 143B it was 500 to 5000 nM; with Hs822T it was > 5000 nM; with Hs863T, > 5000 nM.
As for `CC(C)[C@]12O[C@H]1[C@@H]1O[C@]13[C@]1(O[C@H]1C[C@H]1C4=C(CC[C@@]13C)C(=O)OC4)[C@@H]2O` [Triptolide, triptolide, reference compound], the IC50 in the assay on SKBR3, with HL60, with MDA-MB231, in the assay with hTERT-HME1, in the assay on MCF7 and in the assay on MV4-11 was < 500 nM each time. Moreover, the IC50 in the assay with A673, in the assay on SAOS, in the assay on MNNG-HOS Cl #5, in the assay with RD-ES, with MCF10A and in the assay on SK-ES-1 was < 500 nM throughout. Moreover, the IC50 in the assay with T47D was > 5000 nM; in the assay with RS4-11, < 500 nM; with THP-1, < 500 nM; in the assay with 143B it was < 500 nM; in the assay on Hs822T, 500 to 5000 nM; with Hs863T, > 5000 nM.
For the molecule `CN(C)C/C=C/C(=O)Nc1ccc(C(=O)N[C@@H]2CCC[C@H](Nc3ncc(Cl)c(-c4c[nH]c5ccccc45)n3)C2)cc1` [compound 101], the IC50 was 500 to 5000 nM in the assay with Jurkat cells; 100 to 1000 nM on CDK7 (setting [1]); 100 to 1000 nM at CDK7 (setting [2]); > 1000 nM at MLK3; > 1000 nM on CDK5/p25.
Consider `CN(C)C/C=C/C(=O)Nc1ccc(C(=O)N[C@@H]2CCC[C@@H](Nc3ncc(Cl)c(-c4c[nH]c5ccccc45)n3)C2)cc1` [compound 104], for which the IC50 with Jurkat cells was < 500 nM; on CDK7 (setting [1]) it was < 100 nM; at CDK7 (setting [2]) it was < 100 nM; at MLK3 it was > 1000 nM; at CDK5/p25, > 1000 nM.
Turning to `CN(C)C/C=C/C(=O)Nc1ccc(C(=O)NC2CCCC(Nc3ncc(Cl)c(-c4c[nH]c5ccccc45)n3)C2)c(F)c1` (stereo not shown) [compound 125], the values for the IC50 in the assay on Jurkat cells and on CDK7 (setting [1]) were < 500 nM and < 100 nM, respectively.
Taken in the same sequence, the figures for `CN(C)C/C=C/C(=O)Nc1ccc(C(=O)NC2(C)CCCC(Nc3ncc(Cl)c(-c4c[nH]c5ccccc45)n3)C2)cc1` (stereo not shown) [compound 128] were < 500 nM and < 100 nM.
In the case of `CN(C)C/C=C/C(=O)Nc1cccc(C(=O)NC2CCC(Nc3ncc(Cl)c(-c4c[nH]c5ccccc45)n3)CC2)c1` (stereo not shown) [compound 140], the IC50 in the assay on Jurkat cells was < 500 nM; at CDK7 (setting [1]), < 100 nM.
